According to patent US7879884B2, “Aryl pyridyl sulfonamide derivatives, their manufacture and use as pharmaceutical agents” (Hoffmann-La Roche Inc., priority 2007, dated 2011):

Tested on: HCT 116 cells
Experiment: CellTiter-Glo Luminescent Cell Viability Assay in HCT 116 cells
Assay type: cell-based
Conditions: HCT 116 human colon carcinoma cells, 5 days (120 h) incubation, CellTiter-Glo luminescence, triplicate
Source text: CellTiter-Glo™ Assay in HCT 116 Cells
The CellTiter-Glo™ Luminescent Cell Viability Assay (Promega) is a homogeneous method of determining the number of viable cells in culture based on quantitation of the ATP present, which signals the presence of metabolically active cells.
HCT 116 cells (human colon carcinoma, ATCC-No. CCI-247) were cultivated in RPMI 1640 medium with GlutaMAX™ I (Invitrogen, Cat-No. 61870-010), 5% Fetal Calf Serum (FCS, Sigma Cat-No. F4135 (FBS)); 100 Units/ml penicillin/[…] streptomycin (=Pen/Strep from Invitrogen Cat. No. 15140).
For the assay the cells were seeded in 384 well plates, 1000 cells per well, in the same medium. The next day the test compounds were added in various concentrations ranging from 30 μM to 0.0015 μM (10 concentrations, 1:3 diluted). After 5 days the CellTiter-Glo™ assay was done according to the instructions of the manufacturer (CellTiter-Glo™ Luminescent Cell Viability Assay, from Promega). In brief: the cell-plate was equilibrated to room temperature for approximately 30 minutes and than the CellTiter-Glo™ reagent was added. The contents were carefully mixed for 15 minutes to induce cell lysis. After 45 minutes the luminescent signal was measured in Victor 2, (scanning multiwell spectrophotometer, Wallac).
• Medium: RPMI 1640 with GlutaMAX™ I (Invitrogen, Cat-Nr. 61870), 5% FCS (Sigma Cat.-No. F4135), Pen/Strep (Invitrogen, Cat No. 15140). • HCT116 (ATCC-No. CCI-247): 1000 cells in 60 μl per well of 384 well plate (Greiner 781098, μClear-plate white) • After seeding incubate plates 24 h at 37° C., 5% CO2 2nd. day: Induction (Treatment with Compounds, 10 Concentrations):
In order to achieve a final concentration of 30 μM as highest concentration 3.5 μl of 10 mM compound stock solution were added directly to 163 μl media. Then step e) of the dilution procedure described below, was followed.

IC50 [µM]	Compound
1.43	COc1cccc(OC)c1-c1ccc(S(=O)(=O)NC(=O)c2ccc(Cl)cc2Cl)cn1 [Example 1-1, 6-(2,6-Dimethoxy-phenyl)-pyridine-3-sulfonic acid 2,4-dichloro-benzoylamide]
0.5 to 7.5	COc1cccc(OC)c1-c1ccc(S(=O)(=O)NC(=O)c2ccc(F)cc2Cl)cn1 [Example 1-2, 6-(2,6-Dimethoxy-phenyl)-pyridine-3-sulfonic acid 2-chloro-4-fluoro-benzoylamide]
0.5 to 7.5	COc1cc(Cl)ccc1C(=O)NS(=O)(=O)c1ccc(-c2c(OC)cccc2OC)nc1 [Example 1-4, 6-(2,6-Dimethoxy-phenyl)-pyridine-3-sulfonic acid 4-chloro-2-methoxy-benzoylamide]
0.5 to 7.5	COc1cc(Cl)ccc1C(=O)NS(=O)(=O)c1ccc(-c2c(C)cccc2C)nc1 [Example 1-6, 6-(2,6-Dimethyl-phenyl)-pyridine-3-sulfonic acid 4-chloro-2-methoxy-benzoylamide]
0.5 to 7.5	COc1cccc(F)c1-c1ccc(S(=O)(=O)NC(=O)c2ccc(Cl)cc2Cl)cn1 [Example 1-10, 6-(2-Fluoro-6-methoxy-phenyl)-pyridine-3-sulfonic acid 2,4-dichloro-benzoylamide]
3.98	COc1ccccc1-c1ncc(S(=O)(=O)NC(=O)c2ccc(Cl)cc2Cl)cc1C [Example 1-12, 6-(2-Methoxy-phenyl)-5-methyl-pyridine-3-sulfonic acid 2,4-dichloro-benzoylamide]
0.5 to 7.5	Cc1cc(S(=O)(=O)NC(=O)c2ccc(F)cc2C(F)(F)F)cnc1-c1ccccc1Cl [Example 1-14, 6-(2-Chloro-phenyl)-5-methyl-pyridine-3-sulfonic acid 4-fluoro-2-trifluoromethyl-benzoylamide]

Further lines, the compound ahead of its results:

Compound	IC50 [µM]
COc1cccc(OC)c1-c1ccc(S(=O)(=O)NC(=O)c2ccc(F)cc2C(F)(F)F)cn1 [Example 1-3, 6-(2,6-Dimethoxy-phenyl)-pyridine-3-sulfonic acid 4-fluoro-2-trifluoromethyl-benzoylamide]	0.5 to 7.5
COc1cc(Cl)ccc1C(=O)NS(=O)(=O)c1ccc(-c2c(C)cc(C)cc2C)nc1 [Example 1-5, 6-(2,4,6-Trimethyl-phenyl)-pyridine-3-sulfonic acid 4-chloro-2-methoxy-benzoylamide]	0.5 to 7.5
CSc1ccccc1-c1ccc(S(=O)(=O)NC(=O)c2ccc(Cl)cc2Cl)cn1 [Example 1-7, 6-(2-Methylsulfanyl-phenyl)-pyridine-3-sulfonic acid 2,4-dichloro-benzoylamide]	0.5 to 7.5
CS(=O)(=O)c1ccccc1-c1ccc(S(=O)(=O)NC(=O)c2ccc(Cl)cc2Cl)cn1 [Example 1-8, 6-(2-Methanesulfonyl-phenyl)-pyridine-3-sulfonic acid 2,4-dichloro-benzoylamide]	2.94
O=C(NS(=O)(=O)c1ccc(-c2ccc(C(F)(F)F)cc2C(F)(F)F)nc1)c1ccc(Cl)cc1Cl [Example 1-9, 6-(2,4-Bis-trifluoromethyl-phenyl)-pyridine-3-sulfonic acid 2,4-dichloro-benzoylamide]	0.5 to 7.5
COc1cc(Cl)ccc1C(=O)NS(=O)(=O)c1ccc(-c2ccccc2NS(C)(=O)=O)nc1 [Example 1-11, 6-(2-Methanesulfonylamino-phenyl)-pyridine-3-sulfonic acid 4-chloro-2-methoxy-benzoylamide]	0.5 to 7.5
COc1ccccc1-c1ncc(S(=O)(=O)NC(=O)c2ccc(F)cc2C(F)(F)F)cc1C [Example 1-13, 6-(2-Methoxy-phenyl)-5-methyl-pyridine-3-sulfonic acid 4-fluoro-2-trifluoromethyl-benzoylamide]	0.5 to 7.5
Cc1cc(S(=O)(=O)NC(=O)c2ccc(F)cc2Cl)cnc1-c1ccccc1Cl [Example 1-15, 6-(2-Chloro-phenyl)-5-methyl-pyridine-3-sulfonic acid 2-chloro-4-fluoro-benzoylamide]	0.5 to 7.5
COc1cc(Cl)ccc1C(=O)NS(=O)(=O)c1cnc(-c2ccccc2Cl)c(C)c1 [Example 1-16, 6-(2-Chloro-phenyl)-5-methyl-pyridine-3-sulfonic acid 4-chloro-2-methoxy-benzoylamide]	0.5 to 7.5
